Laboratory results taken from patent EP0677522A1, “8-METHOXYQUINOLONECARBOXYLIC ACID DERIVATIVE” (priority 1992, dated 1994).
Values after ≈ are worked out from the molar mass of the structure shown.

Experiments:
Assay type in all cases: cell-based
[1] = tested on: Staphylococcus aureus FDA 209P; test: In vitro antibacterial activity (MIC), Japan Society of Chemotherapy Standard; details: FDA209P, inoculated cells 10⁶ cells/ml
Description: (§1) The in vitro antibacterial activity (minimum inhibitory concentration, MIC, µg/ml) of the test compounds was determined according to Japan Society of Chemotherapy Standard [Chemotherapy, vol. 29, pp 76-79 (1981)].
(§2) Inoculated cells were 10⁶ cells/ml and the strain with * was incubated in a medium supplemented with 10% horse blood. The mark "1)" means quinolone resistant MRSA and "2)" means quinolone resistant bacteria.

S. viridans America = test: as above; details: Streptococcus viridans; inoculated cells 10⁶ cells/ml; medium supplemented with 10% horse blood
Description: as §1, §2

[2] = tested on: Corynebacterium diphtheriae Tronto; test: as above; details: inoculated cells 10⁶ cells/ml, medium supplemented with 10% horse blood
Description: as §1, §2

Klebsiella pneumoniae DT = test: as above; details: inoculated cells 10⁶ cells/ml
Description: as §1, §2

S. epidermidis SEY-223 = test: as above; details: Staphylococcus epidermidis, SEY223; quinolone resistant bacteria; inoculated cells 10⁶ cells/ml
Description: as §1, §2

S. aureus No.88 = test: as above; details: Staphylococcus aureus; quinolone resistant MRSA; inoculated cells 10⁶ cells/ml
Description: as §1, §2

Shigella flexneri EW-10 = test: as above; details: EW10, inoculated cells 10⁶ cells/ml
Description: as §1, §2

[3] = tested on: Enterococcus faecalis LS-101; test: as above; details: LS101, inoculated cells 10⁶ cells/ml
Description: as §1, §2

[4] = tested on: A.calcoaceticus IFO 13006; test: as above; details: Acinetobacter calcoaceticus, IFO13006; inoculated cells 10⁶ cells/ml
Description: as §1, §2

[5] = tested on: Serratia marcescens IFO 12648; test: as above; details: IFO12648, inoculated cells 10⁶ cells/ml
Description: as §1, §2

E. faecium EFMY-28 = test: as above; details: Enterococcus faecium, EFMY28; inoculated cells 10⁶ cells/ml
Description: as §1, §2

[6] = tested on: Streptococcus pyogenes C-203; test: as above; details: C203, inoculated cells 10⁶ cells/ml, medium supplemented with 10% horse blood
Description: as §1, §2

[7] = tested on: Escherichia coli NIHJ JC-2; test: as above; details: NIHJJC2, inoculated cells 10⁶ cells/ml
Description: as §1, §2

[8] = tested on: Enterobacter cloacae IFO 12937; test: as above; details: IFO12937, inoculated cells 10⁶ cells/ml
Description: as §1, §2

[9] = tested on: S. epidermidis ATCC 12228; test: as above; details: Staphylococcus epidermidis, ATCC12228; inoculated cells 10⁶ cells/ml
Description: as §1, §2

M.catarrhalis ATCC 25238 = test: as above; details: Moraxella catarrhalis, ATCC25238; inoculated cells 10⁶ cells/ml; medium supplemented with 10% horse blood
Description: as §1, §2

E. faecalis EFY-204 = test: as above; details: Enterococcus faecalis, EFY204; quinolone resistant bacteria; inoculated cells 10⁶ cells/ml
Description: as §1, §2

[10] = tested on: Acinetobacter calcoaceticus ATCC 13006; test: as above; details: ATCC13006, inoculated cells 10⁶ cells/ml
Description: as §1, §2

S. pneumoniae Type-III = test: as above; details: Streptococcus pneumoniae; inoculated cells 10⁶ cells/ml; medium supplemented with 10% horse blood
Description: as §1, §2

P.aeruginosa U-31 = test: as above; details: Pseudomonas aeruginosa, U31; inoculated cells 10⁶ cells/ml
Description: as §1, §2

[11] = tested on: Pseudomonas aeruginosa IFO 12582; test: as above; details: IFO12582, inoculated cells 10⁶ cells/ml
Description: as §1, §2

K.pneumoniae DT-S = test: as above; details: Klebsiella pneumoniae; inoculated cells 10⁶ cells/ml
Description: as §1, §2

[12] = tested on: Mycobacterium smegmatis IFO 3153; test: Antibacterial effect against specific bacteria (MIC); details: Mycolicibacterium smegmatis, IFO3153; same manner as Experimental Example 1
Description: as §1
(§3) In the same manner as in Experimental Example 1, the antibacterial effect against specific bacteria such as Chlamydia, Mycoplasma and acid-fast bacteria and anaerobic bacteria was determined.

[13] = tested on: Ureaplasma urealyticum ATCC 27618; test: as above; details: ATCC27618, same manner as Experimental Example 1
Description: as §1, §3

[14] = tested on: Mycoplasma pneumoniae ATCC 29343; test: as above; details: ATCC29343, same manner as Experimental Example 1
Description: as §1, §3

[15] = tested on: Chlamydia trachomatis D/UW-3Cx; test: as above; details: same manner as Experimental Example 1
Description: as §1, §3

[16] = tested on: Bacteroides fragilis GAI 5560; test: as above; details: GAI5560, same manner as Experimental Example 1
Description: as §1, §3

B. fragilis BFY-18 = test: as above; details: Bacteroides fragilis, BFY18; same manner as Experimental Example 1
Description: as §1, §3

[17] = tested on: Mycobacterium smegmatis IFO 13167; test: as above; details: Mycolicibacterium smegmatis, IFO13167; same manner as Experimental Example 1
Description: as §1, §3

S. aureus MRSA Y-238 = test: MIC of the infectious bacteria used for experimental infection; details: Staphylococcus aureus, infectious strain of the mouse protection test
Description: as §1
(§4) Experimental infection was caused by intraperitoneal inoculation of respective bacteria to male mice. One hour after the inoculation, a test compound was orally administered to the mice. The therapeutic effect of each test compound was evaluated by reference to the 50% effective dose (ED₅₀) which was based on the survival ratio at 7 days after the administration according to the probit method [Proc. Soc. Exp. Med., Vol. 57, p 261-264 (1944)]. The minimum inhibitory concentration (MIC) of the infectious bacteria used was also determined. […]

E. coli KC-14 = test: as above; details: Escherichia coli, KC14; infectious strain of the mouse protection test
Description: as §1, §4

S. aureus Smith = test: as above; details: Staphylococcus aureus; infectious strain of the mouse protection test
Description: as §1, §4

CC1COc2c(N3CCN(C)CC3)c(F)cc3c(=O)c(C(=O)O)cn1c23 (centres unmarked) [Comp. Ex. 2, 9-fluoro-2,3-dihydro-3-methyl-10-(4-methyl-1-piperazinyl)-7-oxo-7H-pyrido [1. 2. 3-de) [1.4] benzoxazine-6-carboxylic acid, reference compound]
MIC [1]: 0.2 µg/mL (≈ 0.553 µM) | MIC (S. viridans America): 3.13 µg/mL (≈ 8.66 µM) | MIC [2]: 0.39 µg/mL (≈ 1.08 µM) | MIC (Klebsiella pneumoniae DT): 0.1 µg/mL (≈ 0.277 µM) | MIC (S. epidermidis SEY-223): > 100 µg/mL | MIC (S. aureus No.88): 50 µg/mL (≈ 138 µM) | MIC (Shigella flexneri EW-10): 0.05 µg/mL (≈ 0.138 µM) | MIC [3]: 0.39 µg/mL (≈ 1.08 µM) | MIC [4]: 0.2 µg/mL (≈ 0.553 µM) | MIC [5]: 0.2 µg/mL (≈ 0.553 µM) | MIC (E. faecium EFMY-28): 3.13 µg/mL (≈ 8.66 µM) | MIC [6]: 1.56 µg/mL (≈ 4.32 µM) | MIC [7]: 0.05 µg/mL (≈ 0.138 µM) | MIC [8]: 0.39 µg/mL (≈ 1.08 µM) | MIC [9]: 0.2 µg/mL (≈ 0.553 µM) | MIC (M.catarrhalis ATCC 25238): 0.1 µg/mL (≈ 0.277 µM) | MIC (E. faecalis EFY-204): 50 µg/mL (≈ 138 µM) | MIC [10]: 0.2 µg/mL (≈ 0.553 µM) | MIC (S. pneumoniae Type-III): 0.78 µg/mL (≈ 2.16 µM) | MIC (P.aeruginosa U-31): 1.56 µg/mL (≈ 4.32 µM) | MIC [11]: 1.56 µg/mL (≈ 4.32 µM) | MIC (K.pneumoniae DT-S): 0.05 µg/mL (≈ 0.138 µM) | MIC [12]: 0.39 µg/mL (≈ 1.08 µM) | MIC [13]: 3.13 µg/mL (≈ 8.66 µM) | MIC [14]: 1.56 µg/mL (≈ 4.32 µM) | MIC [15]: 0.39 µg/mL (≈ 1.08 µM) | MIC [16]: 1.56 µg/mL (≈ 4.32 µM) | MIC (B. fragilis BFY-18): 1.56 µg/mL (≈ 4.32 µM) | MIC [17]: 0.39 µg/mL (≈ 1.08 µM) | MIC (S. aureus MRSA Y-238): > 100 µg/mL | MIC (E. coli KC-14): 0.05 µg/mL | MIC (S. aureus Smith): 0.05 µg/mL
